Measured values from ChEMBL document CHEMBL5576086, “Macrocarpal B blocks the binding between the phospholipase A2 receptor and its antibodies” (Bioorg Med Chem, 2024).
Activity calls are given as the source filed them. No cut-off for these calls is given here. Starred links: 1 amine or outer side, 2 acyl side, 3 side chain; linkers in the order of their positions; H or OH if unused. Positions of bridges follow the written chain, without caps; N, C: chain ends. Non-standard residues stand in square brackets, D forms with d. Residues, ends and D or L forms follow the SMILES beside them. Chains are numbered I, II in the order given. Actinocin(9to1) = Cc1c2oc3c(C)ccc(C(=O)[*:1])c3nc-2c(C(=O)[*:2])c(N)c1=O; NMeV = CN[C@H](C(=O)O)C(C)C; Sar = CNCC(=O)O

Experiments:
Homo sapiens [1] = organism: Homo sapiens; assay: Inhibition of Anti-PLA2R IgG interaction with human recombinant PLA2 receptor at 10 uM incubated for 1 hr by ELISA analysis relative to control
Homo sapiens [2] = organism: Homo sapiens; assay: Inhibition of Anti-PLA2R IgG interaction with human recombinant PLA2 receptor at 10 uM by SPR analysis relative to control
Homo sapiens [3] = organism: Homo sapiens; assay: Inhibition of Anti-PLA2R IgG interaction with human recombinant PLA2 receptor by SPR analysis; conditions: dose 50-80 nM
Homo sapiens [4] = organism: Homo sapiens; assay: Inhibition of Anti-PLA2R IgG interaction with human recombinant PLA2 receptor assessed as maximum inhibition at 0 to 5 uM by SPR analysis relative to control; conditions: dose 0-5 µM
[5] = target: Secretory phospholipase A2 receptor (Homo sapiens, UniProt Q13018); assay: Binding affinity to human recombinant PLA2 receptor assessed as dissociation constant by SPR analysis
Sequence of Secretory phospholipase A2 receptor (Q13018 whole entry): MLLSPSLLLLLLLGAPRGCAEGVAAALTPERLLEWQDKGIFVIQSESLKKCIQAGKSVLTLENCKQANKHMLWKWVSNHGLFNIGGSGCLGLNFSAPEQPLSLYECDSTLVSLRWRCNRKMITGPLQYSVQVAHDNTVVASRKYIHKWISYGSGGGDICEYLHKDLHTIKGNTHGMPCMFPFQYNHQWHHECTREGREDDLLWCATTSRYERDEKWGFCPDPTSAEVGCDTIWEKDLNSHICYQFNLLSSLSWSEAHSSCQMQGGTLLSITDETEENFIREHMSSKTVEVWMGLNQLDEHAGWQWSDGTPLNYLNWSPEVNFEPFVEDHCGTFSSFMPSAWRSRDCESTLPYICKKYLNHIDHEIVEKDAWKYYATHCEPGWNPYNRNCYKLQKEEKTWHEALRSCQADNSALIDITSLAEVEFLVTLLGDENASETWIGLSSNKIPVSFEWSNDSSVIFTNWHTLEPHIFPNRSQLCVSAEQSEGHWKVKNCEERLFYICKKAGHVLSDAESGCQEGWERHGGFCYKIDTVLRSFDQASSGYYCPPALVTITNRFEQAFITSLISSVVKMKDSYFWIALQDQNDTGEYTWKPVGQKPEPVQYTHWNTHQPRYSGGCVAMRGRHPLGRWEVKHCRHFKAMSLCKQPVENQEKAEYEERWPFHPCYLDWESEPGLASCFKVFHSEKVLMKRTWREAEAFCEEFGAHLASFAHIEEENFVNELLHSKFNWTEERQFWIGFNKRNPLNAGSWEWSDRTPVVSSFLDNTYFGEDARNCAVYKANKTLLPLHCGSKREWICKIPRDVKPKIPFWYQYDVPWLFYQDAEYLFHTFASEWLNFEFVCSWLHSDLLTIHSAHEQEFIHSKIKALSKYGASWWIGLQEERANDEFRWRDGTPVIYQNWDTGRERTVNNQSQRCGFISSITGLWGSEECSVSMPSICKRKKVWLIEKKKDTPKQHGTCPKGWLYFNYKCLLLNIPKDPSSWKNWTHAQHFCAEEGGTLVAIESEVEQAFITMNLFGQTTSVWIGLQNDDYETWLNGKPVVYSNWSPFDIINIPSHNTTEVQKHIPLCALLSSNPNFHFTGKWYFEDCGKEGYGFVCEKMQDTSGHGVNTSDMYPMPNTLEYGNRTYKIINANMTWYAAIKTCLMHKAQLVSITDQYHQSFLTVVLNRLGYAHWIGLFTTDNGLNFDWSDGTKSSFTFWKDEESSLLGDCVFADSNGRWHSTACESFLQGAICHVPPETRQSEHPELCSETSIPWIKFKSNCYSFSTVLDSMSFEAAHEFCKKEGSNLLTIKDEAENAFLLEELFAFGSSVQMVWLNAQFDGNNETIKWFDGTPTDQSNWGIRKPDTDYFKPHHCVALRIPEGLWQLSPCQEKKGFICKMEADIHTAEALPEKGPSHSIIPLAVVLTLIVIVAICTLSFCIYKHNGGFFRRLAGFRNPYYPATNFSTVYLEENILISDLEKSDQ

Homo sapiens [6] = organism: Homo sapiens; assay: Binding affinity to human Anti-PLA2R IgG at 1 to 500 uM by SPR analysis; conditions: dose 1-500 µM
Podocyte [7] = assay: Reversal of membranous nephropathy-patient derived 5% plasma induced cytotoxicity against human Podocytes assessed as cell viability recovery by measuring optical density at 0.2 uM measured at 48 hrs by CCK-8 assay (reference value: 0.4 +/- 0.1); type: functional
Podocyte [8] = assay: Reversal of membranous nephropathy-patient derived 5% plasma induced cytotoxicity against human Podocytes assessed as cell viability recovery by measuring optical density at 1 uM measured at 48 hrs by CCK-8 assay (reference value: 0.4 +/- 0.1); type: functional
Podocyte [9] = assay: Reversal of membranous nephropathy-patient derived 5% plasma induced cytotoxicity against human Podocytes assessed as cell viability recovery by measuring optical density at 5 uM measured at 48 hrs by CCK-8 assay (reference value: 0.4 +/- 0.1); type: functional
Podocyte [10] = assay: Reversal of membranous nephropathy-patient derived 5% plasma induced cytotoxicity against human Podocytes assessed as cell viability recovery by measuring optical density at 0.2 uM measured at 72 hrs by CCK-8 assay (reference value: 0.3 +/- 0.05); type: functional
Podocyte [11] = assay: Reversal of membranous nephropathy-patient derived 5% plasma induced cytotoxicity against human Podocytes assessed as cell viability recovery by measuring optical density at 1 uM measured at 72 hrs by CCK-8 assay (reference value: 0.3 +/- 0.05); type: functional
Podocyte [12] = assay: Reversal of membranous nephropathy-patient derived 5% plasma induced cytotoxicity against human Podocytes assessed as cell viability recovery by measuring optical density at 5 uM measured at 72 hrs by CCK-8 assay (reference value: 0.3 +/- 0.05); type: functional
Podocyte [13] = assay: Recovery of Podocin-expression in membranous nephropathy-patient derived 5% plasma induced human Podocytes by Western blot analysis; type: functional, cell-based; conditions: dose 0.2-5 µM
Podocyte [14] = assay: Reversal of membranous nephropathy-patient derived 5% plasma induced inhibition of cell migration in human Podocytes assessed as restoration of number of migrating cells at 1 uM measured upto 24 hrs by wound healing assay (reference value: 25.3 +/- 5.1); type: functional
Podocytes = assay: Inhibition of Anti-PLA2R IgG binding to human recombinant PLA2 receptor in human Podocytes assessed as mean fluorescence intensity at 5 uM by immunofluorescence analysis (reference value: 8.1 +/- 1.5); type: cell-based

Row | SMILES | inhibition (Homo sapiens [1]) | inhibition (Homo sapiens [2]) | further results
1 | Cc1c2oc3c(C)ccc(C(=O)N[C@@H]4C(=O)N[C@H](C(C)C)C(=O)N5CCC[C@H]5C(=O)N(C)CC(=O)N(C)[C@@H](C(C)C)C(=O)O[C@@H]4C)c3nc-2c(C(=O)N[C@@H]2C(=O)N[C@H](C(C)C)C(=O)N3CCC[C@H]3C(=O)N(C)CC(=O)N(C)[C@@H](C(C)C)C(=O)O[C@@H]2C)c(N)c1=O (I: T[dV]P[Sar][NMeV] / II: T[dV]P[Sar][NMeV]; ester I:1-I:C, II:1-II:C; linker I:N-II:N via Actinocin(9to1)) | 79.3% | – | –
2 | COc1c(O)c2c(=O)cc(OC)c3c4c(OC)cc(O)c5c(=O)c(OC)c6c(c(c1[C@H](C(C)=O)[C@](C)(O)C6)c23)c54 | 74.3% | 11.9% | –
3 | CC(C)=CCc1cc2c(=O)c3c(O)c(CC=C(C)C)c(O)c(CC=C(C)C)c3oc2c(O)c1O | 55.4% | – | –
4 | CC(C)=CCc1c(O)c(CC=C(C)C)c2oc3c(O)ccc(O)c3c(=O)c2c1O | 49.4% | 12.2% | –
5 | CC(=O)O[C@H]1C[C@@H]2C(COC(=O)CC(C)C)=CO[C@@H](OC(=O)CC(C)C)[C@@H]2[C@@]12CO2 | 26.4% | – | –
6 | CC(=O)O[C@H]1C[C@]2(O)C(COC(=O)C(OC(=O)CC(C)C)C(C)C)=CO[C@@H](OC(=O)CC(C)C)[C@@H]2[C@@]12CO2 (some centres undefined) | 30.2% | 7.7% | –
7 | CCCCCc1cc(O)c(C/C=C(\C)CCC=C(C)C)c(O)c1 | 32.9% | 9.7% | –
8 | CC(C)C[C@@H](c1c(O)c(C=O)c(O)c(C=O)c1O)[C@@]1(C)CC[C@H]2C1=C[C@H](C(C)(C)O)CC[C@H]2C | 21.2% | 11.3% | –
9 | COc1cc(O)c2c(=O)c3cc(CC=C(C)C)c(O)c(O)c3oc2c1CC=C(C)C | 51.8% | 10.7% | –
10 | CC(C)=CCC[C@]1(C)C=Cc2c(O)c3c(c(CC=C(C)C)c2O1)O[C@]12C(=C[C@@H]4C[C@H]1C(C)(C)O[C@@]2(C/C=C(/C)C(=O)O)C4=O)C3=O | 73.1% | 13.4% | –
11 | CC(C)C[C@H](c1c(O)c(C=O)c(O)c(C=O)c1O)[C@@]1(C)CC[C@@H]2[C@@H]1[C@H]1[C@@H](CC[C@@]2(C)O)C1(C)C [MACROCARPAL B] | 41.6% | 19% | inhibition (Homo sapiens [3]): Dose-Dependent Effect; Imax (Homo sapiens [4]): 30%; Kd [5]: 1470 nM; Activity (Homo sapiens [6]): inactive; OD (Podocyte [7]): 0.6; OD (Podocyte [8]): 0.7; OD (Podocyte [9]): 0.8; OD (Podocyte [10]): 0.5; OD (Podocyte [11]): 0.6; OD (Podocyte [12]): 0.6; Activity (Podocyte [13]): Dose-Dependent Effect; Activity (Podocyte [14]): 50.7; Flu intensity (Podocytes): 2.1
12 | CC1(C)CC[C@]2(C(=O)O)CC[C@]3(COC(=O)/C=C/c4ccc(O)c(O)c4)C(=CC[C@@H]4[C@@]5(C)CC[C@H](O)C(C)(C)[C@@H]5CC[C@]43C)[C@@H]2C1 | 20.5% | – | –
13 | CO[C@H]1C[C@H](O[C@H]2[C@H](C)O[C@@H](O[C@@H]3/C(C)=C/C[C@@H]4C[C@@H](C[C@]5(C=C[C@H](C)[C@@H](C6CCCCC6)O5)O4)OC(=O)[C@@H]4C=C(C)[C@@H](O)[C@H]5OC/C(=C\C=C\[C@@H]3C)[C@]54O)C[C@@H]2OC)O[C@@H](C)[C@@H]1O | 27.1% | 12% | –
14 | CC(=O)C[C@]1(O)C(=O)C2=C(OC[C@@H]2C)c2ccc3c(C)cccc3c21 | 28.7% | 10.1% | –
15 | CC(C)C[C@@H](c1c(O)c(C=O)c(O)c(C=O)c1O)[C@@H]1CC[C@@](C)(O)[C@@H]2[C@@H]3[C@H](CC[C@]21C)C3(C)C | 34.3% | 12.6% | –
